Measured values from ChEMBL document CHEMBL3232879, “4,5,6,7-Tetrahydro-isoxazolo-[4,5-c]-pyridines as a new class of cytotoxic Hsp90 inhibitors” (Eur J Med Chem, 2014).
pIC50: −log10 of the molar value.

Target: T1, Protein deacetylase HDAC6 (Homo sapiens, UniProt Q9UBN7)
T1 sequence (Q9UBN7 whole entry): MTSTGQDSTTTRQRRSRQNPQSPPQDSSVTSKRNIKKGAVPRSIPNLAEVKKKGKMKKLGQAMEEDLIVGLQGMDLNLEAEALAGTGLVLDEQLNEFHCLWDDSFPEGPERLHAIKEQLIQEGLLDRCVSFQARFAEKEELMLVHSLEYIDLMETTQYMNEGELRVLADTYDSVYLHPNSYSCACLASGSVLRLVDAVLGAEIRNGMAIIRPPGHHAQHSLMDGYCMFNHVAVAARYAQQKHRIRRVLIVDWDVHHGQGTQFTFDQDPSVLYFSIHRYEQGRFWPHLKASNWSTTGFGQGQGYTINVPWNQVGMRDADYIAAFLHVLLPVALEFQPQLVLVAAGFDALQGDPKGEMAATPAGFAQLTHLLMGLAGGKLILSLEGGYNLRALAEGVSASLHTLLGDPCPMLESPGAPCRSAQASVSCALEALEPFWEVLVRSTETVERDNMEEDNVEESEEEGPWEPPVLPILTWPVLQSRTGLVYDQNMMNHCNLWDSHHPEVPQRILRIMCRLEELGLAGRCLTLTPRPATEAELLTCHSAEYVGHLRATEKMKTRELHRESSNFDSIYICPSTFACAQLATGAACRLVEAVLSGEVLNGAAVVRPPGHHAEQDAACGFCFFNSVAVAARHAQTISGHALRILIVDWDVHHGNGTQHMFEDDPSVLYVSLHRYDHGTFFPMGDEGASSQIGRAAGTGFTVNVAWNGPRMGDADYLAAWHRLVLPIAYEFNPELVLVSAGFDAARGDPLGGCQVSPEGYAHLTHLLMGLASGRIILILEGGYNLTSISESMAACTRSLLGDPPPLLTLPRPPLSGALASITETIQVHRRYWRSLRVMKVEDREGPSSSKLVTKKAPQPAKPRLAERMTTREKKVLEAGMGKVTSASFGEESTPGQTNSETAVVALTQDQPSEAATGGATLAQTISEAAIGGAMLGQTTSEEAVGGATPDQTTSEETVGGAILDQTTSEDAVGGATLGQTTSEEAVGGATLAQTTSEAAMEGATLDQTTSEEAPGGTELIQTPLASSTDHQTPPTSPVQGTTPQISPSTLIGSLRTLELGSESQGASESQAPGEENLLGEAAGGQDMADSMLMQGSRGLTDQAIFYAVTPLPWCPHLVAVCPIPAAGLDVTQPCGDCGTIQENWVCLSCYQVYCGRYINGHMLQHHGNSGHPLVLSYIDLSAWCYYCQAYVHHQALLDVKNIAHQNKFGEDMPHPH
Assay: Inhibition of human HDAC-6 using RHKK(Ac) as substrate

`CC(C)c1cc(C(=O)N2CCc3onc(C(=O)NCCCCCCC(=O)NO)c3C2)c(O)cc1O` was tested, and the pIC50 was 8.39.
